From patent US20240374631A1, “A COMPOSITION FOR IMPROVING GUT MICROBIOTA, BEHAVIOURAL PATTERN, ALPHA-SYNUCLEIN LEVELS, SLEEP PATTERN AND/OR SERUM MELATONIN” (GN Corporation Co Ltd, priority 2021, published 2024)

Tested on: gut microbiota
Assay: Gut microbiome analysis (16S rRNA sequencing of fecal samples) in STAM model of NASH
Type: in vivo, C57BL/6J mice
Details: pre (baseline)
Source text: The study is reported in accordance with Animal Research: Reporting of In Vivo Experiments (ARRIVE) guidelines. C57BL/6J mice were obtained from Japan SLC, Inc. (Japan). All animals used in this study were cared for under the following guidelines: Act on Welfare and Management of Animals (Ministry of the Environment, Japan, Act No. 105 of Oct. 1, 1973), standards relating to the care and management of laboratory animals and relief of pain (Notice No. 88 of the Ministry of the Environment, Japan, Apr. 28, 2006) and the guidelines for proper conduct of animal experiments (Science Council of Japan, Jun. 1, 2006). Protocol approvals were obtained from SMC Laboratories, Japan's IACUC (Study reference no: […] Mice were maintained in a specific pathogen-free (SPF) facility under controlled conditions of temperature (23±3° C.), humidity (50±20%), lighting (12-hour artificial light and dark cycles; light from 8:00 to 20:00) and air exchange. The STAM model of NASH was induced as previously described [D10]. Mice were given a single subcutaneous injection of 200 μg streptozotocin (STZ, Sigma-Aldrich, USA) solution 2 days after birth and fed with a high-fat diet (HFD, 57 kcal % fat, Cat #HFD32, CLEA Japan, Inc., Japan) from 4-9 weeks of age. All mice develop liver steatosis and diabetes and at […] mice had established steatohepatitis, histologically. Studygroups: There were five study groups, described below. Eight mice were included in each study group. Eight NASH mice were orally administered vehicle supplemented with AFO-202 Beta Glucan at a dose of 1 mg/kg in a volume of 5 mL/kg once daily from 6 to 9 weeks of age. Eight NASH mice were orally administered vehicle supplemented with Telmisartan at a dose of 10 mg/kg once daily from 6 to 9 weeks of age. Frequency: Fecal samples were collected at the 6 weeks of age (before administration) and 9 weeks of age (before sacrifice). Procedure: At 6 weeks of age, fecal samples were collected from each mouse by clean catch method. […] A sterile petri dish was placed on the bench. Gently massage the abdomen, position the bottom of mouse over a fresh petri dish, and collect 1-2 fecal pellets. At sacrifice, fecal samples were aseptically collected from cecum. The tubes with feces were placed on ice immediately. These tubes were snap frozen in liquid nitrogen and stored at -80° C. for shipping. In this analysis, the 16S rRNA sequence data acquired by the next-generation sequencer from the fecal […] was used to perform community analysis using the QIIME2 program for microbial community analysis. The raw read data in FASTQ format output from the next-generation sequencer was trimmed to remove adapter sequences and low QV regions that may be included in the data. Cutadapt was used to remove adapter sequences from DNA sequencing reads. Trimmomatic was used as read trimming tool for Illumina NGS data. The adapter sequence was trimmed using the adapter trimming program “cutadapt” if the Trimming of the region at the end of the read sequence overlapped the corresponding sequence by at least one base (mismatch tolerance: 20%). When reads containing N were present in at least one of Read1 and Read2, both Read1 and Read2 were removed. Trimming of low QV regions was performed on the read data after processing using the QV trimming program “Trimmomatic” under the following conditions. The window of 20 bases is slid from the 5' side, and the area where the average QV is less than 20 is trimmed. After trimming, only the reads with more than 50 bases remaining in both Read1 and Read2 were taken as output. The microbial community analysis based on 16S rRNA sequence was performed on the sequence data trimmed in the previous section using the microbial community analysis program “QIIME2”. The annotation program “sklearn” included in QIIME2 is used to annotate the ASV (OTU) sequences. […]

CCCc1nc2c(C)cc(-c3nc4ccccc4n3C)cc2n1Cc1ccc(-c2ccccc2C(=O)O)cc1 [Telmisartan]
Abundance: Ruminococcaceae, Oscillospira, — (line r193): 57 | Abundance: Lactobacillaceae, Lactobaccilus, reuteri (line r194): 0 | Abundance: Coriobacteriaceae, Adlercreutzia, — (line r195): 58 | Abundance: Lachnospiraceae, —, — (line r196): 0 | Abundance: S24-7, —, — (line r197): 64 | Abundance: Turicibacteraceae, Turicibacter, — (line r198): 0 | Abundance: S24-7, —, — (line r199): 45 | Abundance: Rikenellaceae, —, — (line r200): 25 | Abundance: Enterobacteriaceae, Other, Other (line r201): 0 | Abundance: Rikenellaceae, Other, Other (line r202): 47 | Abundance: Lactobacillaceae, Lactobaccilus, Other (line r204): 0 | Abundance: —, —, — (line r205): 60 | Abundance: S24-7, —, — (line r206): 27 | Abundance: S24-7, —, — (line r207): 35 | Abundance: —, —, — (line r208): 85 | Abundance: Enterobacteriaceae, Klebsiella, Other (line r209): 0 | Abundance: —, —, — (line r210): 63 | Abundance: Lachnospiraceae, Other, Other (line r211): 48 | Abundance: Ruminococcaceae, Oscillospira, — (line r212): 0 | Abundance: Ruminococcaceae, Oscillospira, — (line r213): 71 | Abundance: Bacteroidaceae, Bacteroides, acidifaciens (line r214): 27 | Abundance: Erysipelotrichaceae, —, — (line r215): 51 | Abundance: Lachnospiraceae, Dorea, — (line r216): 98 | Abundance: Enterobacteriaceae, Enterobacter, Other (line r217): 0 | Abundance: Ruminococcaceae, Oscillospira, — (line r218): 42 | Abundance: Ruminococcaceae, Other, Other (line r219): 61 | Abundance: Ruminococcaceae, Oscillospira, — (line r220): 0 | Abundance: Rikenellaceae, —, — (line r221): 31 | Abundance: Lachnospiraceae, Other, Other (line r223): 98 | Abundance: Other, Other, Other (line r224): 18 | Abundance: Ruminococcaceae, Oscillospira, — (line r225): 79 | Abundance: S24-7, —, — (line r226): 38 | Abundance: Lachnospiraceae, —, — (line r227): 3 | Abundance: Streptococcaceae, Staphylococcus, — (line r228): 0 | Abundance: —, —, — (line r229): 96 | Abundance: —, —, — (line r230): 87 | Abundance: —, —, — (line r231): 0 | Abundance: Other, Other, Other (line r232): 10 | Abundance: Aerococcaceae, Aerococcus, — (line r233): 0 | Abundance: Ruminococcaceae, —, — (line r234): 0 | Abundance: —, —, — (line r235): 61 | Abundance: Streptococcaceae, Staphylococcus, — (line r236): 0 | Abundance: Ruminococcaceae, Oscillospira, — (line r237): 0 | Abundance: —, —, — (line r238): 0 | Abundance: Ruminococcaceae, Ruminococcus, — (line r239): 0 | Abundance: —, —, — (line r240): 6 | Abundance: Other, Other, Other (line r241): 0 | Abundance: Ruminococcaceae, Oscillospira, — (line r242): 30 | Abundance: Lachnospiraceae, [Ruminococcus], gnavus (line r243): 27 | Abundance: Lachnospiraceae, —, — (line r244): 0 | Abundance: Other, Other, Other (line r245): 0 | Abundance: Ruminococcaceae, Oscillospira, — (line r246): 37 | Abundance: —, —, — (line r247): 69 | Abundance: Other, Other, Other (line r248): 0 | Abundance: Other, Other, Other (line r249): 0 | Abundance: Other, Other, Other (line r250): 68 | Abundance: Lachnospiraceae, Clostridium, Other (line r251): 0 | Abundance: Lachnospiraceae, —, — (line r252): 0 | Abundance: Other, Other, Other (line r253): 13 | Abundance: Other, Other, Other (line r254): 23 | Abundance: Ruminococcaceae, Oscillospira, — (line r255): 25 | Abundance: Desulfovibrionaceae, —, — (line r256): 23 | Abundance: Dehalobacteriaceae, Dehalobacterium, — (line r257): 24 | Abundance: Ruminococcaceae, Ruminococcus, — (line r259): 44 | Abundance: Lachnospiraceae, Coprococcus, — (line r260): 23 | Abundance: Ruminococcaceae, Oscillospira, — (line r261): 0 | Abundance: Other, Other, Other (line r262): 0 | Abundance: Lachnospiraceae, Coprococcus, — (line r263): 34 | Abundance: Ruminococcaceae, Oscillospira, — (line r264): 87 | Abundance: Christensenellaceae, —, — (line r265): 37 | Abundance: S24-7, —, — (line r266): 44 | Abundance: Ruminococcaceae, Oscillospira, — (line r267): 95 | Abundance: Lachnospiraceae, Coprococcus, — (line r268): 11 | Abundance: Lachnospiraceae, Other, Other (line r269): 0 | Abundance: Erysipelotrichaceae, Clostridium, cocleatum (line r271): 16 | Abundance: —, —, — (line r272): 92 | Abundance: Desulfovibrionaceae, Bilophila, — (line r273): 11 | Abundance: —, —, — (line r274): 107 | Abundance: Corynebacteriaceae, Corynebacterium, stationis (line r275): 0 | Abundance: Lachnospiraceae, Other, Other (line r276): 0 | Abundance: Lachnospiraceae, Other, Other (line r277): 0 | Abundance: Lachnospiraceae, —, — (line r278): 14 | Abundance: Lachnospiraceae, —, — (line r279): 31 | Abundance: —, —, — (line r280): 108 | Abundance: —, —, — (line r281): 0 | Abundance: —, —, — (line r282): 0 | Abundance: Ruminococcaceae, —, — (line r283): 27 | Abundance: —, —, — (line r284): 96 | Abundance: Lachnospiraceae, —, — (line r285): 90 | Abundance: Dehalobacteriaceae, Dehalobacterium, — (line r286): 3 | Abundance: Other, Other, Other (line r287): 0 | Abundance: Streptococcaceae, Streptococcus, luteciae (line r288): 12 | Abundance: —, —, — (line r289): 0 | Abundance: S24-7, —, — (line r290): 0 | Abundance: Ruminococcaceae, Ruminococcus, — (line r292): 10 | Abundance: Lachnospiraceae, Clostridium, Other (line r293): 26 | Abundance: —, —, — (line r294): 10 | Abundance: Ruminococcaceae, Oscillospira, — (line r295): 11 | Abundance: Lachnospiraceae, Coprococcus, — (line r296): 20 | Abundance: —, —, — (line r297): 12 | Abundance: S24-7, —, — (line r298): 0 | Abundance: Lachnospiraceae, —, — (line r300): 0 | Abundance: Ruminococcaceae, Oscillospira, — (line r301): 54
